Structures are written as SMILES.

The test system of the test is NIH-MDR1-G185 cells. Kind of test: Fluorescent substrate (BODIPY-FL Taxol) accumulation assay. Type of test: cell-based. The following applies: BODIPY-FL taxol 500 nM, MDR modulator 10 micromolar, 40 min at 37° C.; fluorescence in NIH-MDR1-G185 cells in presence / absence of modulator. The protocol:
Fluorescent Substrate Accumulation Assay
NIH-MDR1-GI 85 cells (obtained from M. Gottesman, NI1H) were harvested and resuspended in RPMI-1640 containing L-glutamine, 10% Cosmic Calf Serum and penicillin-streptomycin. Cell suspension aliquots of 175 microliters (1×10^5 cells) were added to individual wells of a 96 well microtiter plate and preincubated for 15 min at 37° C. with 20 microliters MDR modulator diluted in cell culture media to give a final concentration of 10 micromolar. Control wells received no modulating agent. BODIPY-FL Taxol (Molecular Probes, Eugene, Oreg.) was added to each well in 10 microliter aliquots to give a final concentration of 500 nM and cells were incubated for 40 min at 37° C. Cells were centrifuged at 100× g for 5 min at 4° C. and the cell pellet washed with 200 microliters cold PBS to remove fluorescent medium from wells. Cells were centrifuged once more, media removed, and cells resuspended in 200 microliters cold PBS. Fluorescence accumulation was measured in a fluorescence plate reader fitted with an excitation filter of 485 nm and an emission filter of 538 nm. BODIPY-FL taxol accumulation in the cells was calculated as follows:
Accumulation Index=(fluorescence in NIH-MDR1-G185 cells in the presence of modulator)/(fluorescence in NIH-MDR1-G185 cells in absence of modulator) […]

For the compound `O=C(CCCNC[C@@H](O)COc1cccc2ncccc12)NC(CCCc1ccccc1)CCCc1ccccc1` [Example 25, N-{1-[2-(R)-Hydroxy-3-(quinolin-5-yloxy)-propyl]}-4-aminobutyric acid [4-phenyl-1-(3-phenyl-propyl)-butyl]-amide], the “Accumulation Index” value came to 10.

These data come from US20020119979A1, “Acyclic compounds and methods for treating multidrug resistance” (priority 2000, published 2002).
